Source: paper PMC7686039 (Bioorganic chemistry, 2020)
“Also recorded” adds a separate entry of the source. Values belong to the compound of their own block, whether it stands above or below them.

Legend:
[1] = target: Recombinant full-length Sirt1 (human) (UniProt Q96EB6); assay: cross-linking
Sirt1 = settings: ref [17]; cited from earlier work
recombinant Sirt1 = assay: inhibition/competition of p53 ABP labeling of recombinant Sirt1; assay type: binding, human
Sirt2 = settings: cited from earlier work
[2] = test system: Sirt1 (overexpressed) in HEK293T lysates; assay: p53 ABP labeling of Sirt1 in HEK293T lysates overexpressing Sirt1; assay type: binding; settings: 500 μM inhibitor; 5 μM p53 ABP, 50 μg lysate, 500 μM NAD^+

Sequence of UniProt Q96EB6 (Q96EB6 whole entry): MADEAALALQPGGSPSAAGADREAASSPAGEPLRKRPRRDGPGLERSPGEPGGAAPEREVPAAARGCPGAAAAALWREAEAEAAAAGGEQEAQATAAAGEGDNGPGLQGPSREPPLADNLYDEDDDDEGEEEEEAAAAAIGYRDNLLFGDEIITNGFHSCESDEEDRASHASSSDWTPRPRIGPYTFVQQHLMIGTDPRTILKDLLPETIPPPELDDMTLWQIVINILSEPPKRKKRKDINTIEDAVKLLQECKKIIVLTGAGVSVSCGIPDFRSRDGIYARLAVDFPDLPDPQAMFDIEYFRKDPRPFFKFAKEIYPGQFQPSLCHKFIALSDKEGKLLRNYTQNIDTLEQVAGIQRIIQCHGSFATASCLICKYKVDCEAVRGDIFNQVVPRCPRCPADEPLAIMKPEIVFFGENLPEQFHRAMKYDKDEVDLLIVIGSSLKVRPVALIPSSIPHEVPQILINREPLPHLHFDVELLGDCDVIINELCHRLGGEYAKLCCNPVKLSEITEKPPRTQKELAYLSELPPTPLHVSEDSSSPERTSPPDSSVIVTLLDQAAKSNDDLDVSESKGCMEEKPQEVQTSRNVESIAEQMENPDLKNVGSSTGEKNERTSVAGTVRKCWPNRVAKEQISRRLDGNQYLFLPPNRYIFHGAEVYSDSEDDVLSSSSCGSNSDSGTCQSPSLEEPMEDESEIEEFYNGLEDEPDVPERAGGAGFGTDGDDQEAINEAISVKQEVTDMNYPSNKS

fold increase of labelling with NAD+ over without NAD+ [1]: 4 fold
Compound: 8-mer thioacetyl-lysine p53 peptide, (diazirine)-RHKK(thioacetyl)LMF-(propargylglycine)-NH2

Compound: N[C@@H](CCC(=O)N[C@@H](CSN=O)C(=O)NCC(=O)O)C(=O)O [GSNO, S-nitrosoglutathione]
Sirt1 deacetylase activity upon S-nitrosation (Sirt1): complete loss of deacetylase activity
effect on p53 ABP labeling of recombinant Sirt1, GSNO pretreatment (recombinant Sirt1; 100 μM GSNO, presence and absence of 500 μM NAD^+): A dramatic loss of Sirt1 labeling

Compound: Cc1cc(C)nc(SCC(=O)Nc2ncc(Cc3cccc4ccccc34)s2)n1 [SirReal2]
Sirt2 selectivity of SirReal2 (Sirt2; ref [48]): Sirt2-selective
change of p53 ABP labeling of Sirt1 [2]: no reduction in activity-based labeling of Sirt1; also recorded: a slight increase in activity-based labeling of Sirt1

Compound: CCCCCCCCCCCCCC(=S)NCCCCC(NC(=O)OCc1ccccc1)C(=O)Nc1ccccc1 (centres unmarked) [TM]
Sirt2 selectivity of TM (Sirt2; ref [22]): Sirt2-selective
change of p53 ABP labeling of Sirt1 [2]: no reduction in activity-based labeling of Sirt1

concentration needed to compete with p53 ABP labeling versus Kd (recombinant Sirt1; 0.2–500 μM, competitor reversible, p53 ABP labeling covalent and irreversible): exceeds the Kd values
Compound: H2N-RHKK(trifluoroacetyl)LMF-NH2 [p53tfa]
